The values that follow come from paper PMC6470784, “Effect of Stereochemical Configuration on the Transport and Metabolism of Catechins from Green Tea across Caco-2 Monolayers” (Molecules, 2019).

Data set [1] relates to MRP2. Put plainly: MRP2 protein level in Caco-2 cells (Western blot). It is filed as cell-based, human. The note with it: 300 μmol/L, 2 h. The protocol:
After being washed by precooled PBS buffer three times, the total lysate was prepared on ice from 5 to 8 × 10^6 cells by lysis in a 150 μL Radio Immunoprecipitation Assay (RIPA) Lysis buffer containing 1% (v/v) Phenylmethanesulfonyl fluoride (PMSF) (Beyotime, Shanghai, China). The lysates were centrifuged at 13,000 rpm for 20 min at 4 °C, after mixing uniformity. The protein-containing supernatant was collected and the protein content was determined using the Bio-Rad protein assay. Western blotting was performed according to standard techniques, as previously described. In each lane of a Bio-Rad minigel system, 10 μg of protein was loaded. For the detection of BCRP, P-glycoprotein (MDR1), and MRP2, the following polyclonal antibodies were used: rabbit anti-BCRP (1:1000), rabbit anti-P-glycoprotein (1:1000), and rabbit anti-MRP2 (1:600). Horseradish peroxidase (HRP)-conjugated goat anti-rabbit (1:3000) were used as the secondary antibodies. As a loading control, the expression of β-actin was determined using an antibody against β-actin (1:40,000). Enhanced chemiluminescence (ECL) solutions were used for chemiluminescence.

Data set [2] deals with MRP2. Put plainly: MRP2 mRNA level in Caco-2 cells (qRT-PCR). The class given is cell-based, human. Conditions: 300 μmol/L, 2 h. How it is done:
The Caco-2 cells were seeded in six-well plates (Corning Costar Co., NY, USA) at a density of 4 × 10^4 cells/cm^2, and were cultured for 21 days. After incubation with each tea catechins (300 μmol/L in full culture medium) for 2 h or 24 h, the total RNA from the Caco-2 cells were isolated with a Total RNA Kit (Aidlab, Beijing, China). First-strand cDNA was synthesized using a cDNA synthesis Kit (Aidlab, Beijing, China). The gene expression of MRP2 was examined by quantitative real-time PCR with the SYBR Green qPCR Mix (Aidlab, Beijing, China) in an ABI7500 Real-Time System (Applied Biosystems, USA). The reaction was carried out in a 10 μL RT-reaction mixture containing 5 μL 2 × SYBR Green qPCR Mix, 0.2 μL forward and reverse primers (10 μmol/μL), and water to a final volume of 10 μL, and was performed under the following cycling conditions: an initial denaturing step of 10 min at 95 °C, followed by 40 cycles consisting of 5 s at 95 °C and 34 s at 60 °C.
All of the qPCR experiments were repeated in three biologicals. The data were analyzed using the 2-ΔΔCT method. All of the primers were synthesized by Sangon Biotech (Shanghai, China), as previously described, and their sequences are depicted in Table 3.

A short description of data set [3]: Bidirectional transepithelial transport across Caco-2 monolayers (Papp, efflux ratio), with and without MK571. The note with it: human; for Papp A→B at 300 μmol/L / Papp at 300 μmol/L / Papp B→A at 300 μmol/L: Caco-2, pH 6.
Method: (§1) For the transport experiments, the cells were seeded in 24-mm i.d Transwell® inserts (polycarbonate membrane, 0.4 μM pore size, Corning Costar Co., (Corning, NY, USA) in six-well plates at a density of 4 × 10^5 cells/well, and were cultured for 21 days prior to the transport experiments. To monitor the integrity of the cell layers, transepithelial electrical resistance (TEER) values were measured using a Millicell-ERS Voltohmmeter (Millipore Corp, Bedford, MA, USA). TEER values above 513.7 Ω·cm^2 in the culture medium were selected for the transport experiment.
(§2) For the transport of GTCs across the Caco-2 monolayers, the inserts were gently washed twice and were equilibrated at 37 °C for 30 min with 0.01 M modified phosphate buffer saline (PBS+), which was supplemented with 0.45 M calcium chloride and 0.4 M potassium chloride, and adjusted to pH 6.0 [7]. In the transepithelial transport, GTCs at different concentrations in PBS+ (DMSO less than 0.5%) were loaded into the apical (AP) or basolateral (BL) side, the so-called donor side. The plate was then incubated at 37 °C. At designated time intervals, aliquots of 0.5 mL of sample were taken from the other side, the so-called receiver side, and then replaced with an equal volume of PBS+. After that, the samples were dried with a CoolSafe freeze dryer (LaboGene ApS, Bjarkesvej, Denmark) at −110 °C, and stored at −20 °C until analysis.
(§3) For the inhibition of transport, MK571 was used at a concentration of 93.11 μmol/L (50 μg/mL with a DMSO less than 0.3%). The cells were preincubated with the inhibitor for 30 min. Then, the bi-directional transport studies of the GTCs in the presence of MK-571 at both the donor and receiver side were performed as for the transport method described above.
(§4) The transport samples were analyzed by an Agilent LC 1260 system (Agilent Technologies, CA, USA) after redissolving with 50 μL methyl into vial inserts (100 uL; Agilent Technologies, CA, USA). The separation was performed on an Octadecylsilyl (ODS) reversed-phase column (4.6 mm i.d. × 250 mm, 4.5 μm; TC-C18, Agilent Technologies) using a diode array detector (DAD) at 278 nm. The mobile phase consisted of 15% methanol and 0.1% formic acid at a flow-rate of 0.8 mL/min.
(§5) The values were expressed as the mean ± standard deviation (SD) of three replications. The statistical significances of the difference between the various groups were analyzed using the Fisher’s least significant difference (LSD) procedure. For comparison between the two groups, the Student’s t-test was used. The differences were considered to be significant when p < 0.05.
Data set [4] deals with BCRP. Put plainly: BCRP mRNA level in Caco-2 cells (qRT-PCR). It is filed as cell-based, human. The note with it: 2 h.
Method: All of the qPCR experiments were repeated in three biologicals. The data were analyzed using the 2-ΔΔCT method [39]. All of the primers were synthesized by Sangon Biotech (Shanghai, China), as previously described [40], and their sequences are depicted in Table 3.
A further data set is described as follows: in vitro. Conditions: human; for Papp A→B at 300 μmol/L / Papp B→A at 300 μmol/L / Papp at 300 μmol/L: Caco-2, pH 6; for efflux ratio: Caco-2, pH 6, Efflux ratio in the absence of MK571.
On the set-up of data set [5]: method as in PMID 10909265. Conditions: rats, cited from earlier work.
For data set [6] the following is noted: cited from earlier work.
A further data set concerns P-glycoprotein. Further details: method as in PMID 15285844. Conditions: KB-C2 cells; cited from earlier work.
Data set [7] concerns MRP2. Further details: method as in PMID 23146761. The note with it: rats, 24 h; cited from earlier work.
Data set [8] relates to BCRP. Also on record: method as in PMID 20149610. The note with it: MCF-7 cell line, 100 μg/mL; cited from earlier work.
For another data set, the system named is Caco-2 cell monolayers. Put plainly: Bidirectional transepithelial transport across Caco-2 monolayers (Papp, efflux ratio), with and without MK571. Conditions: Caco-2 monolayers, MK571 93.11 μmol/L.
[9] abbreviates: Caco-2, pH 6, Efflux ratio in the absence of MK571, Caco-2 monolayers, no MK571.
Where [10] appears, read: Caco-2, pH 6, with MK571 93.11 μmol/L (50 μg/mL), Efflux ratio in the presence of MK571, Caco-2 monolayers, MK571 93.11 μmol/L.
[11] abbreviates: rats, intragastric administration.

Counter-ions that a name gives are not always drawn. Like-named read-outs stand apart in the source and are kept apart here.

Method for Caco-2 cell monolayers: as §1, §2, §3, §4, §5
Method for in vitro: as §1, §2, §3, §4, §5

On to `Oc1cc(O)c2c(c1)O[C@H](c1ccc(O)c(O)c1)[C@@H](O)C2` [C, (+)-catechin], for which the “Increase of protein level of MRP2” value in the data set with MRP2 [1] is reported as 58.33%. Also, the “Increase of mRNA levels of MRP2” value in the data set on MRP2 [2] is 14.05%. In addition, in data set [3], the Papp A→B at 300 μmol/L is 0.156 ± 0.011 ×10⁻⁶ cm/s and the Papp at 300 μmol/L is below 1 ×10⁻⁶ cm/s. For the same compound, in data set [3] (setting [9]), the efflux ratio was found to be 16.7. In data set [3] (setting [10]), the efflux ratio came to 1.34.
For `O=C(O[C@@H]1Cc2c(O)cc(O)cc2O[C@H]1c1ccc(O)c(O)c1)c1cc(O)c(O)c(O)c1` [CG, (−)-catechin gallate], the BCRP gene expression entry in the data set on BCRP [4] is “upregulation”. Also, the “Increase of protein level of MRP2” value with MRP2 [1] worked out at 132.00%. Further, the “Increase of mRNA levels of MRP2” value with MRP2 [2] worked out at 123.09%. In “in vitro”, the apparent permeability from apical to basolateral (Papp A→B) at 300 μmol/L turned out to be 0.139 ± 0.012 ×10⁻⁶ cm/s, the basolateral-to-apical permeability (Papp B→A) at 300 μmol/L came to 0.651 ± 0.042 ×10⁻⁶ cm/s, the Papp at 300 μmol/L was below 1 ×10⁻⁶ cm/s and the efflux ratio was 4.68.
Consider `Oc1cc(O)c2c(c1)O[C@H](c1ccc(O)c(O)c1)[C@H](O)C2` [EC, (−)-epicatechin], for which the “Plasma concentration following oral administration” value in data set [5] (250 mg/kg) was 53 µM. Further, the BCRP gene expression result in the data set on BCRP [4] was “upregulation”. Also, the “Increase of protein level of MRP2” value with MRP2 [1] is 60.00%. Moreover, in data set [6] (setting [11]), the Bioavailability is 31%. Besides, the “Increase of mRNA levels of MRP2” value in the data set on MRP2 [2] was determined as 41.67%. Further, in data set [3], the Papp A→B at 300 μmol/L was 0.152 ± 0.017 ×10⁻⁶ cm/s and the Papp B→A at 300 μmol/L came to 1.69 ± 0.163 ×10⁻⁶ cm/s. Also, the efflux ratio in data set [3] (setting [9]) was 11.2. Besides, the efflux ratio in data set [3] (setting [10]) amounted to 1.06.
Regarding `O=C(O[C@@H]1Cc2c(O)cc(O)cc2O[C@@H]1c1ccc(O)c(O)c1)c1cc(O)c(O)c(O)c1` [ECG, (−)-epicatechin gallate], the “Plasma concentration following oral administration” value in [5] (650 mg/kg) was 33.5 µM. For the same compound, in the data set with BCRP [4], the BCRP gene expression result was “upregulation”. Moreover, the “Cellular accumulation of rhodamine-123 and daunorubicin” value (from here on “Cellular accumulation”) in the data set on P-glycoprotein is “increase the cellular accumulation”. Besides, in the data set on MRP2 [1], the “Increase of protein level of MRP2” value is listed as 24.67%. For the same compound, the “Increase of mRNA levels of MRP2” value with MRP2 [2] was determined as 85.18%. Further, in “in vitro”, the apparent permeability from apical to basolateral (Papp A→B) at 300 μmol/L came to 0.138 ± 0.009 ×10⁻⁶ cm/s, the apparent permeability from basolateral to apical (Papp B→A) at 300 μmol/L was 0.387 ± 0.031 ×10⁻⁶ cm/s and the efflux ratio stood at 2.82.
Take `Oc1cc(O)c2c(c1)O[C@H](c1cc(O)c(O)c(O)c1)[C@H](O)C2` [EGC, (−)-epigallocatechin]: in the data set on P-glycoprotein, the “Cellular accumulation” value is listed as “increase the cellular accumulation”. In addition, the “Increase of protein level of MRP2” value with MRP2 [1] was 35.67%. In addition, the Bioavailability in data set [6] (rat, in vivo, po) is listed as 13.7%. The “Increase of mRNA levels of MRP2” value in the data set with MRP2 [2] was determined as 103.58%. In “in vitro”, the apical-to-basolateral permeability (Papp A→B) at 300 μmol/L came to 0.246 ± 0.01 ×10⁻⁶ cm/s, the Papp B→A at 300 μmol/L amounted to 0.674 ± 0.062 ×10⁻⁶ cm/s and the efflux ratio was 2.74.
Take `O=C(O[C@@H]1Cc2c(O)cc(O)cc2O[C@@H]1c1cc(O)c(O)c(O)c1)c1cc(O)c(O)c(O)c1` [EGCG, (−)-epigallocatechin gallate]: the “Protein level of MRP2 on the hepatocyte canalicular membrane” value in the data set with MRP2 [7] is “significantly decreased”. In data set [5] (2500 mg/kg), the “Plasma concentration following oral administration” value was 244.3 µM. For the same compound, the BCRP gene expression result in the data set on BCRP [4] is on record as “upregulation”. For the same compound, the “Cellular accumulation” value in the data set with P-glycoprotein is “increase the cellular accumulation”. Further, the “Increase of protein level of MRP2” value with MRP2 [1] amounted to 42.67%. Also, the Bioavailability in data set [6] (setting [11]) is recorded as 0.1%. In addition, in the data set on MRP2 [2], the “Increase of mRNA levels of MRP2” value is listed as 89.57%. Further, in the data set on BCRP [8], the “mRNA transcription and protein level of BCRP” value is “not changed”. Moreover, in [3], the apparent permeability from apical to basolateral (Papp A→B) at 300 μmol/L is 0.093 ± 0.008 ×10⁻⁶ cm/s and the Papp B→A at 300 μmol/L amounted to 0.257 ± 0.01 ×10⁻⁶ cm/s. Also, the efflux ratio in [3] (setting [9]) is 2.75. The efflux ratio in data set [3] (setting [10]) amounted to 1.05.
`Oc1cc(O)c2c(c1)O[C@@H](c1cc(O)c(O)c(O)c1)[C@H](O)C2` [GC, (+)-gallocatechin]: the “Increase of protein level of MRP2” value in the data set with MRP2 [1] came to 37.67%. Moreover, the “Increase of mRNA levels of MRP2” value in the data set with MRP2 [2] is recorded as 119.33%. In the data set “in vitro”, the apparent permeability from apical to basolateral (Papp A→B) at 300 μmol/L was determined as 0.264 ± 0.021 ×10⁻⁶ cm/s, the Papp B→A at 300 μmol/L was 0.875 ± 0.028 ×10⁻⁶ cm/s, the apparent permeability (Papp) at 300 μmol/L was below 1 ×10⁻⁶ cm/s and the efflux ratio stood at 3.32.
Regarding `O=C(O[C@@H]1Cc2c(O)cc(O)cc2O[C@H]1c1cc(O)c(O)c(O)c1)c1cc(O)c(O)c(O)c1` [GCG, (−)-gallocatechin gallate], in the data set with BCRP [4], the BCRP gene expression entry was “upregulation”. Moreover, the “Increase of protein level of MRP2” value with MRP2 [1] was 20.67%. For the same compound, in the data set with MRP2 [2], the “Increase of mRNA levels of MRP2” value came to 133.15%. Further, in data set [3], the Papp A→B at 300 μmol/L stood at 0.103 ± 0.021 ×10⁻⁶ cm/s, the basolateral-to-apical permeability (Papp B→A) at 300 μmol/L worked out at 0.293 ± 0.013 ×10⁻⁶ cm/s and the Papp at 300 μmol/L was below 1 ×10⁻⁶ cm/s. Besides, the efflux ratio in [3] (setting [9]) amounted to 2.84. Besides, the efflux ratio in data set [3] (setting [10]) was determined as 1.24.
`CN(C)C(=O)CCSC(SCCC(=O)O)c1cccc(/C=C/c2ccc3ccc(Cl)cc3n2)c1` (stereo not shown) [MK-571, MK-571 sodium salt hydrate, reference compound]: the “Effect of MK-571 on the efflux of eight catechins” value with Caco-2 cell monolayers is given as “significantly inhibit”.
